From PubChem BioAssay AID1845198 (Molecular Pharmacology Branch, DTP, NCI, 2023)

Test system: 425362-245-T-J1 tumor spheroids, viability % test/control
Assay: Anticancer human tumor 425362-245-T-J1 patient-derived melanoma cell line growth inhibition
Conditions: spheroids with HUVEC and MSC; for IC50: curve of first compound; for viability, T/C: stronger effect = lower value
Outline: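 Complex tumor spheroids combined malignant cells with endothelial cells and mesenchymal stem cells. DNA-damaging drugs and DNA repair inhibitors were tested alone and in combination, at half-log dilutions down from clinical Cmax (top 10 microM if Cmax unknown), 0.25% DMSO final.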

[1] = second compound 1 µM, first compound 0.00949 µM
[2] = second compound 1 µM, first compound 0.03 µM
[3] = second compound 1 µM, first compound 0.0949 µM
[4] = second compound 1 µM, first compound 0.3 µM
[5] = second compound 1 µM, first compound 0.949 µM
[6] = second compound 1 µM, first compound 3 µM
[7] = second compound 3.16 µM, first compound 0.00949 µM
[8] = second compound 3.16 µM, first compound 0.03 µM
[9] = second compound 3.16 µM, first compound 0.0949 µM
[10] = second compound 3.16 µM, first compound 0.3 µM
[11] = second compound 3.16 µM, first compound 0.949 µM
[12] = second compound 3.16 µM, first compound 3 µM
[13] = second compound 10 µM, first compound 0.00949 µM
[14] = second compound 10 µM, first compound 0.03 µM
[15] = second compound 10 µM, first compound 0.0949 µM
[16] = second compound 10 µM, first compound 0.3 µM
[17] = second compound 10 µM, first compound 0.949 µM
[18] = second compound 10 µM, first compound 3 µM
[19] = second compound 31.6 µM, first compound 0.00949 µM
[20] = second compound 31.6 µM, first compound 0.03 µM
[21] = second compound 31.6 µM, first compound 0.0949 µM
[22] = second compound 31.6 µM, first compound 0.3 µM
[23] = second compound 31.6 µM, first compound 0.949 µM
[24] = second compound 31.6 µM, first compound 3 µM
[25] = second compound 100 µM, first compound 0.00949 µM
[26] = second compound 100 µM, first compound 0.03 µM
[27] = second compound 100 µM, first compound 0.0949 µM
[28] = second compound 100 µM, first compound 0.3 µM
[29] = second compound 100 µM, first compound 0.949 µM
[30] = second compound 100 µM, first compound 3 µM
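Also: spheroids exposed to agents for 7 days.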

| SMILES | IC50 (second compound 1 µM) [nM] | IC50 (second compound 3.16 µM) [nM] | IC50 (second compound 10 µM) [nM] | IC50 (second compound 31.6 µM) [nM] | IC50 (second compound 100 µM) [nM] | viability, T/C [1] [%] | viability, T/C [2] [%] | viability, T/C [3] [%] | viability, T/C [4] [%] | viability, T/C [5] [%] | viability, T/C [6] [%] | viability, T/C [7] [%] | viability, T/C [8] [%] | viability, T/C [9] [%] | viability, T/C [10] [%] | viability, T/C [11] [%] | viability, T/C [12] [%] | viability, T/C [13] [%] | viability, T/C [14] [%] | viability, T/C [15] [%] | other results |
| --- | --- | --- | --- | --- | --- | --- | --- | --- | --- | --- | --- | --- | --- | --- | --- | --- | --- | --- | --- | --- | --- |
| CNCc1ccc(-c2cc(-c3nc(-c4ccc(S(=O)(=O)C(C)C)cc4)cnc3N)on2)cc1 + Cn1nnc2c(C(N)=O)ncn2c1=O | 82.2 | 142 | 120 | 109 | 63.7 | 103 | 89.2 | 45.2 | 6.29 | 3.41 | 0.13 | 99.2 | 93.1 | 72.2 | 9.15 | 3.94 | 0.13 | 111 | 101 | 61 | viability, T/C [16]: 9.28%; viability, T/C [17]: 2.96%; viability, T/C [18]: 0.12%; viability, T/C [19]: 95.4%; viability, T/C [20]: 105%; viability, T/C [21]: 56.2%; viability, T/C [22]: 7.24%; viability, T/C [23]: 2.97%; viability, T/C [24]: 0.11%; viability, T/C [25]: 92.7%; viability, T/C [26]: 81.9%; viability, T/C [27]: 33.1%; viability, T/C [28]: 4.28%; viability, T/C [29]: 4.13%; viability, T/C [30]: 0.16% |
| Cc1sc2c(c1C)C(c1ccc(Cl)cc1)=NC(CC(=O)Nc1ccc(O)cc1)c1nnc(C)n1-2 (stereo not given) + Cn1nnc2c(C(N)=O)ncn2c1=O | 82.7 | 86.4 | 108 | 108 | 85.7 | 85.8 | 86.8 | 44.5 | 11.4 | 4.19 | 4.22 | 110 | 86.2 | 47.6 | 15.7 | 3.45 | 2.88 | 106 | 90 | 57.5 | viability, T/C [16]: 8.87%; viability, T/C [17]: 3.57%; viability, T/C [18]: 2.37%; viability, T/C [19]: 103%; viability, T/C [20]: 92%; viability, T/C [21]: 54.1%; viability, T/C [22]: 16.9%; viability, T/C [23]: 4%; viability, T/C [24]: 2.29%; viability, T/C [25]: 84.8%; viability, T/C [26]: 90.5%; viability, T/C [27]: 45.6%; viability, T/C [28]: 10.6%; viability, T/C [29]: 3.44%; viability, T/C [30]: 1.57% |
| Cn1ncnc1[C@H]1c2n[nH]c(=O)c3cc(F)cc(c23)N[C@@H]1c1ccc(F)cc1 + Cn1nnc2c(C(N)=O)ncn2c1=O | 24.5 | 13.5 | 12.6 | < 9.49 | < 9.49 | 59.9 | 48.6 | 27 | 12.1 | 9.08 | 2.19 | 54.8 | 40.1 | 19.1 | 14.3 | 7.67 | 2.76 | 57.8 | 26.8 | 15.8 | viability, T/C [16]: 13.2%; viability, T/C [17]: 7%; viability, T/C [18]: 3.32%; viability, T/C [19]: 27.6%; viability, T/C [20]: 12%; viability, T/C [21]: 9.07%; viability, T/C [22]: 7.7%; viability, T/C [23]: 5.14%; viability, T/C [24]: 2.14%; viability, T/C [25]: 7.96%; viability, T/C [26]: 7.44%; viability, T/C [27]: 5.25%; viability, T/C [28]: 4.75%; viability, T/C [29]: 4.31%; viability, T/C [30]: 2.46% |
